Laboratory results as given in PMC5874719, “A π-Halogen Bond of Dibenzofuranones with the Gatekeeper Phe113 in Human Protein Kinase CK2 Leads to Potent Tight Binding Inhibitors” (Pharmaceuticals, 2018).

How the values were obtained:
[1] = tested on: cellular CK2 in ARPE19 cells; assay: cellular CK2 activity after treatment of cells (in vitro phosphorylation assay of cell extracts); assay type: cell-based, human; conditions: for cellular CK2 activity reduced to: control = 100%
Protocol: (§1) Figure 4 Expression of CK2 in prostate cancer cell line LNCaP and non-neoplastic retinal pigment epithelial cell line ARPE19 and inhibition of intracellular activity by dibenzofurans. (A) Cells were extracted with RIPA buffer. 50 μg cell extract was separated on a 12.5% SDS polyacrylamide gel and transferred to a PVDF membrane followed by Western blotting with anti-CK2α (1A5), anti-CK2α’ (#30), anti-CK2α (6D5) and anti-GAPDH antibodies. GAPDH was used as a loading control. (B) ARPE19 or LNCaP cells were treated with DMSO as control (0 μM) or with 25 or 50 μM 4b, 4a or 5 for 24 or 48 h. Kinase activity of CK2 in the cell extracts was measured with the synthetic CK2 specific peptide substrate, […], in the presence of [[^32P]γATP. Results from at least three individual experiments are shown; the activity in the control cells was set to 100%.
(§2) ARPE19 and LNCaP cells were treated with 0, 25 or 50 µM of the different dibenzofuran derivatives 4b, 4a and 5 for 24 and 48 h before being harvested. Proteins were extracted and CK2 kinase activity was measured by an in vitro phosphorylation assay using the CK2 specific peptide substrate […] and radiolabeled [[^32P]γATP. The activity as measured was normalized to equal protein amounts. The relative CK2 activity of at least three independent experiments is given as bar graphs in Figure 4B. In ARPE19 cells CK2 activity was strongly repressed by all inhibitors. […] For 5 a weaker but dose-dependant effect was observed. 25 µM reduced the cellular CK2 activity to 80% and with 50 µM the activity was reduced to 40%. In LNCaP cells the results were essentially similar to those made in ARPE19 cells. However, the repression of activity by 4b and 4a was not as strong as in ARPE19 cells. 4b reduced the activity to 50%, 4a to 40%. The outcome using 5 was quite similar to the effects observed in ARPE19 cells: a reduction to roughly 80% when using 25 µM, which was enhanced to 40% when using 50 µM. This also indicated cell penetration of compounds 4a, 4b, and 5. A more direct evidence for intracellular inhibition of CK2 could be obtained by measuring the phosphorylation of endogenous natural substrates (biomarker analysis). […] With respect to their results and taking into consideration that the logP values of compounds 4a, 4b, and 5 as given in Table 2 are not of substantial difference, we conclude that the inhibitors were able to cross the cell membrane and exerted a similar inhibitory effect on intracellular CK2 activity in both cell lines.
(§3) ARPE19 cells (ATCC Number: CRL-2302), retinal pigment epithelia (RPE) cells, were maintained at 37 °C and 5% CO2 in Dulbecco’s modified Eagles medium (DMEM) supplemented with 2 mM L-glutamine, 1 mM gentamicin and 10% fetal calf serum (FCS) at 37 °C in an atmosphere enriched with 5% CO2. The hormone-sensitive prostate cancer cell line LNCaP (ATCC: CRL-1740, passage number 30–40) was cultured in RPMI1640 (Sigma-Aldrich Chemie GmbH, Munich, Germany) supplemented with 10% fetal bovine serum and 2 mM L-glutamine at 37 °C in an atmosphere enriched with 5% CO2. 4b, 4a and 5 were dissolved in DMSO as a 10 mM stock solution and cells were treated in the concentrations and times as indicated. Pure DMSO was applied as control. For the evaluation of cell morphology ARPE19 and LNCaP cells were analysed with bright field microscopy using a Axiovert microscope from Zeiss (Jena, Germany).
(§4) For harvesting cells—including floating cells—were scraped off the plate with a rubber policeman and sedimented by centrifugation (7 min, 4 °C, 400× g). Cells were washed with cold phosphate buffered saline (PBS) and the cell pellet was lysed with the double volume of RIPA buffer (50 mM Tris/HCl, pH 8.0, 150 mM NaCl, 0.5% sodium desoxycholate, 1% Triton X-100, 0.1% sodium dodecylsulfate) supplemented with the protease inhibitor cocktail completeTM (Roche Diagnostics GmbH, Mannheim, Germany). […]

[2] = tested on: cellular CK2 in LNCaP cells; assay: as above; assay type: cell-based, human; conditions: control = 100%
Protocol: as §1, §2, §3, §4

ARPE19 cells = assay: MTT viability assay; assay type: cell-based, human; conditions: 24 h; for cell viability reduced to: ARPE19, 50 µM (highest concentration), DMSO as reference
Protocol: (§5) Protein kinase CK2 is essential for the survival of cells. Therefore, we tested the impact of the CK2 inhibitors on the viability of cells in both lines. The inhibitors were applied in increasing concentrations up to 50 µM to growing cell cultures and the viability was analyzed by a MTT assay after 24 h of treatment. The effect of the compounds on the growth of the normal ARPE19 cells was rather moderate (Figure 5A). 5 had no impact on ARPE19 cell viability. 4b reduced the viability to 70% in its highest concentration and 4a exerted the strongest influence by reducing the ratio of viable cells to 40% when applying a 50 µM dose. In contrast LNCaP cells were strongly impaired by the treatment with the dibenzofurans (Figure 5B): Using 10 µM of the different inhibitors, we only observed an effect with 4b. However, increasing the concentration to 20, 25 and 50 µM exerted a drastic impact on the viability of LNCaP cells. With 50 µM 4b a viability rate of final 5% was obtained, whereas 4a and 5 reduced the viability to 30 to 35%. Thus, the inhibitors in particular affected the viability of LNCaP carcinoma cells, but not of normal retinal pigment epithelium cells. […] Even after 48 h of growth under CK2 inhibition ARPE19 cells appeared rather unaffected by the treatment. […]
(§6) Figure 5 Effects of dibenzofuran inhibitors on cell viability. […] Cell viability was determined using the MTT assay after 24 h of incubation. […]
(§7) ARPE19 cells (ATCC Number: CRL-2302), retinal pigment epithelia (RPE) cells, were maintained at 37 °C and 5% CO2 in Dulbecco’s modified Eagles medium (DMEM) supplemented with 2 mM L-glutamine, 1 mM gentamicin and 10% fetal calf serum (FCS) at 37 °C in an atmosphere enriched with 5% CO2. […] For the evaluation of cell morphology ARPE19 and LNCaP cells were analysed with bright field microscopy using a Axiovert microscope from Zeiss (Jena, Germany).
(§8) Cell proliferation and viability was determined using a colorimetric MTT-based assay (MTT: 3-[4,5-dimethylthiazol-2-yl]-2,5-diphenyl tetrazolium bromide, Sigma-Aldrich, Deisenhofen, Germany) as described in [72]. […]

LNCaP cells = assay: MTT viability assay; assay type: cell-based; conditions: Homo sapiens, 24 h, DMSO as reference, read-out: cell viability
Protocol: as §5, §6, §7, §8

[3] = 25 or 50 µM, 24 or 48 h (not specified)

For `COc1ccc(N/C=C2\C(=O)CCc3c2oc2cc(Cl)c(O)c(Cl)c32)cc1` [4a, 7,9-dichloro-1,2-dihydro-8-hydroxy-4-[(4-methoxyphenylamino)methylene]dibenzo[b,d]furan-3(2H)-one], the “inhibition of cellular CK2 activity” value ([1]; ARPE19, 25 µM for 24 h) was 80%, the “cellular CK2 activity reduced to” value [2, 3] was 40% and the “cell viability reduced to” value (ARPE19 cells) was 40%. It also gave a viability at 50 µM (LNCaP cells) of 30 to 35%.

For `COc1ccc(/N=C/c2c(O)ccc3c2oc2cc(Cl)c(O)c(Cl)c23)cc1` [compound 5, (E)-1,3-dichloro-6-[(4-methoxyphenylimino)methyl]dibenzo[b,d]furan-2,7-diol], the “cellular CK2 activity reduced to” value ([1]; ARPE19, 25 µM) was 80%, the “cellular CK2 activity reduced to” value ([1]; ARPE19, 50 µM) was 40% and the “cellular CK2 activity reduced to” value ([2]; 25 µM) was “roughly 80%”. For the same molecule, the “cellular CK2 activity reduced to” value ([2]; 50 µM) was 40%, the “impact on cell viability” value (ARPE19 cells; ARPE19, up to 50 µM) was “no impact” and the viability at 50 µM (LNCaP cells) was 30 to 35%.

`Cc1ccc(NC=C2C(=O)CCc3c2oc2c(Cl)c(Cl)c(O)cc32)cc1` [4b, 6,7-dichloro-1,4-dihydro-8-hydroxy-4-[(4-methylphenylamino)methylene]dibenzo[b,d]furan-3(2H)-one] was tested, and the “inhibition of cellular CK2 activity” value ([1]; ARPE19, 25 or 50 µM, 24 or 48 h, independent of concentration and time) was 60%, the “cellular CK2 activity reduced to” value [2, 3] was 50% and the “cell viability reduced to” value (ARPE19 cells) was 70%. The viability at 50 µM (LNCaP cells) was 5%.
